Results on eight compounds are retold here after ChEMBL document CHEMBL1124176, “1-Methyl-4-phenyl-1,2,3,6-tetrahydropyridine analogues. Inactivation of monoamine oxidase by conformationally rigid analogues of N,N-dimethylcinnamylamine” (J Med Chem, 1988).

A short description of data set [1]: Cytotoxicity measured as % loss of cells after 120 min. It is filed as cell-based. Conditions: rat, 2 h.
A short description of data set [2]: Cytotoxicity measured as % loss of cells after 60 min. It is filed as cell-based. As to conditions: rat, 1 h.
The nature of data set [3]: Cytotoxicity measured as % loss of cells after 90 min. In kind it is cell-based. As to conditions: rat.
Data set [4] has as its target Amine oxidase [flavin-containing] B (Bos taurus) (UniProt P56560).
Data set [5] has the same target. Put plainly: Inactivation of monoamine oxidase measured as kinetic constant, KI at 0.8-4 conc range.
For data set [6] the target is unchanged. The data set is described as follows: Inactivation of monoamine oxidase measured as kinetic constant, Kinact at 0.8-4 conc range.

Sequence of Amine oxidase [flavin-containing] B (Bos taurus) (P56560 whole entry, looked up): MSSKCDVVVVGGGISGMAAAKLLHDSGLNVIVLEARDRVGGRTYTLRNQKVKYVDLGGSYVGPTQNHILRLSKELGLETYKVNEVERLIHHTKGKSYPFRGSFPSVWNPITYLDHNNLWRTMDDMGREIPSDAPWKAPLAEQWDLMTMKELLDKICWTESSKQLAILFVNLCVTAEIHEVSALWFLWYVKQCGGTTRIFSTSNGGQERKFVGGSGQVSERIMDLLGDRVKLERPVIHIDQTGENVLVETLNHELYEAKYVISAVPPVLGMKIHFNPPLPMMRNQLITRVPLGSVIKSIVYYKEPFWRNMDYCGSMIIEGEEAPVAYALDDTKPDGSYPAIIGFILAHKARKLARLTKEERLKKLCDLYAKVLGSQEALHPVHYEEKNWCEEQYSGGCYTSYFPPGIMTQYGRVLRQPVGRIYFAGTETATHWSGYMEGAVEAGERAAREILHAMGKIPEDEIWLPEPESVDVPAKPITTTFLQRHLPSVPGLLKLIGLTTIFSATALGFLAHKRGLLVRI

Take `C#CCN(C)Cc1ccccc1.NC1C=C(c2ccccc2)CCC1` (stereo not given): the Loss of cells in data set [1] is 69%; in data set [2], 24%; in data set [3] it was 51%.
The matching figures for `C#CCN(C)Cc1ccccc1.CN1CC=C(c2ccccc2)CC1`: 5%, 6% and 11%.
For the compound `C/C=C(\C)c1ccccc1`, in data set [4], the Ki came out at 1.9 mM.
In the case of `C#CCN(C)Cc1ccccc1.CN(C)C1C=C(c2ccccc2)CCC1` (stereo not given), the Loss of cells in data set [2] was 100%.
As to `NC1C=C(c2ccccc2)CCC1` (stereo not given), the Loss of cells in data set [1] is on record as 60%; in data set [2] it was 28%; in data set [3], 35%. Moreover, the Ki in data set [4] was 0.51 mM.
The kinact is the rate constant of inactivation at saturating inhibitor. For the compound `CN(C)C/C=C/c1ccccc1`, the values for the Ki in data set [5] and in data set [4] were 1.33 mM and 1.35 mM, respectively. Besides, the kinact in data set [6] is 0.00356 s⁻¹.
As for `CN1CC=C(c2ccccc2)CC1`, the Loss of cells was 81% in data set [1], 12% in data set [2] and 58% in data set [3].
Consider `CN(C)C1C=C(c2ccccc2)CCC1` (stereo not given), for which, in data set [2], the Loss of cells stood at 100%. This compound also registered a Ki in data set [4] of 1.04 mM.
